Data as given in patent publication US20230132140A1, “METHOD OF TREATING CANCER” (Celloram Inc., priority 2021, published 2023).

Assays:
[1] = Immunogenicity of NeoAgs screened by Deepomics algorithm
[2] = system: COVID-19 patient's PBMC; conditions: cited from earlier work

Row | Sequence | immunogenic characteristics of NeoAgs [1] | induction of T cell responses [2]
1 | GVRAALPTPR (SEQ ID NO: 4) (listed as Mus sp.) [MT4-7] | poorly immunogenic | 
2 | HRAERPFPEED (SEQ ID NO: 1) (listed as Mus sp.) [MT4-1] | poorly immunogenic | 
3 | LTPSFPVSP (SEQ ID NO: 2) (listed as Mus sp.) [MT4-2] | poorly immunogenic | 
4 | QAGPVLPTSLE (SEQ ID NO: 5) (listed as Mus sp.) [MT4-8] | poorly immunogenic | 
5 | RVGGHLRLSGQ (SEQ ID NO: 3) (listed as Mus sp.) [MT4-6] | poorly immunogenic | 
6 | TRFQTLLALHRSYLT (SEQ ID NO: 10) [Spike S236-250 peptide] |  | able to induce T cell responses
